According to the supplement of paper PMC11061612:

What was measured:
Assay in all cases: combination Emax (second highest fraction inhibited in the dose matrix, 72 h); higher = more inhibition; extreme values may be limits of the assay
[1] = test system: NCI-H1581 (Non-Small Cell Lung Carcinoma)
Outline: (§1)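 Cell lines grown in DMEM/F12 or RPMI with 10% FBS were plated in 1536-well plates and held 24 hours at 37°C, 5% CO2 before 72 hours of exposure to two-drug dose matrices, with DMSO typically at 0.2%. CellTiter-Glo 2.0 luminescence gave viability, which was converted to inhibition. Vehicle wells were set to 0 and blank wells to 1. Combination Emax is the second-highest inhibition in the matrix, and Bliss excess is the observed combination effect minus the expected EA + EB − EA·EB, where EA and EB are the single-agent effects.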

NY (Osteosarcoma) = test system: NY (Osteosarcoma)
Outline: as §1

[2] = test system: SK-MG-1 (Low Grade Glioma)
Outline: as §1

U-2-OS (Osteosarcoma) = test system: U-2-OS (Osteosarcoma)
Outline: as §1

[3] = test system: VCaP (Prostate Carcinoma)
Outline: as §1

GI-ME-N (Neuroblastoma) = test system: GI-ME-N (Neuroblastoma)
Outline: as §1

[4] = test system: CCK-81 (Colorectal Carcinoma)
Outline: as §1

[5] = test system: A549 (Lung Adenocarcinoma)
Outline: as §1

LN-405 (Glioblastoma) = test system: LN-405 (Glioblastoma)
Outline: as §1

[6] = test system: OS-RC-2 (Kidney Carcinoma)
Outline: as §1

[7] = test system: CAPAN-2 (Pancreatic Carcinoma)
Outline: as §1

[8] = test system: ONS-76 (Other Solid Carcinomas)
Outline: as §1

[9] = test system: SISO (Cervical Carcinoma)
Outline: as §1

[10] = test system: CAL-29 (Bladder Carcinoma)
Outline: as §1

[11] = test system: COLO-824 (Breast Carcinoma)
Outline: as §1

[12] = test system: NCI-H1650 (Lung Adenocarcinoma)
Outline: as §1

[13] = test system: JSC-1 (B-Cell Non-Hodgkin's Lymphoma)
Outline: as §1

PA-1 (Ovarian Carcinoma) = test system: PA-1 (Ovarian Carcinoma)
Outline: as §1

[14] = test system: TT (Thyroid Gland Carcinoma)
Outline: as §1

CAS-1 (Glioblastoma) = test system: CAS-1 (Glioblastoma)
Outline: as §1

SMILES | combination Emax [1] | combination Emax (NY (Osteosarcoma)) | combination Emax [2] | combination Emax (U-2-OS (Osteosarcoma)) | combination Emax [3] | combination Emax (GI-ME-N (Neuroblastoma)) | combination Emax [4] | combination Emax [5] | combination Emax (LN-405 (Glioblastoma)) | combination Emax [6] | combination Emax [7] | combination Emax [8] | combination Emax [9] | combination Emax [10] | combination Emax [11] | combination Emax [12] | combination Emax [13] | combination Emax (PA-1 (Ovarian Carcinoma)) | combination Emax [14] | combination Emax (CAS-1 (Glioblastoma))
CN(CCO)CC[C@H](CSc1ccccc1)Nc1ccc(S(=O)(=O)NC(=O)c2ccc(N3CCC([C@@H](O)c4ccccc4-c4ccc(Cl)cc4)CC3)cc2)cc1S(=O)(=O)C(F)(F)F [AZD4320] + C=CCn1c(=O)c2cnc(Nc3ccc(N4CCN(C)CC4)cc3)nc2n1-c1cccc(C(C)(C)O)n1 [AZD1775] (first compound max 1 µM, partner max 1 µM) | 0.475 | 0.793 | 0.91 | 0.782 | 0.717 | 0.334 | 0.775 | 0.384 | 0.379 | 0.337 | 0.688 | 0.726 | 0.549 | 0.942 | 1 | 0.403 | 0.904 | 0.967 | 0.484 | 0.713
CS(=O)(=O)CCNCc1ccc(-c2ccc3ncnc(Nc4ccc(OCc5cccc(F)c5)c(Cl)c4)c3c2)o1 [Lapatinib] + C[C@@H](Oc1cc(-c2cnn(C3CCNCC3)c2)cnc1N)c1c(Cl)ccc(F)c1Cl [Crizotinib] (first compound max 10 µM, 7x7, partner max 10 µM) | 0.678 | 0.341 | 0.9 | 0.486 | 0.465 | 0.392 | 0.975 | 0.988 | 0.493 | 0.584 | 0.741 | 0.73 | 0.626 | 0.952 | 0.94 | 0.799 | 0.925 | 1 | 0.409 | 0.962
Cc1c2c(nn1C)CSCc1cc(n(C)n1)CSc1cc(c3ccccc3c1)OCCCc1c(C(=O)O)n(C)c3c-2c(Cl)ccc13 [AZD5991] + C[C@@H]1COCCN1C2=NC(=NC(=C2)C3(CC3)[S@](=N)(=O)C)C4=C5C=CNC5=NC=C4 [AZD6738] (first compound max 1 µM, 7x7, partner max 10 µM) | 1 | 0.805 | 0.566 | 0.599 | 0.947 | 0.431 | 0.979 | 0.726 | 0.668 | 0.363 | 0.35 | 0.821 | 0.607 | 0.897 | 0.868 | 0.516 | 1 | 0.967 | 0.56 | 0.877
COc1cc2c(cc1OCCCCCOc1cc3c(cc1OC)C(=O)N1C=C(C)C[C@H]1C=N3)N=C[C@@H]1CC(C)=CN1C2=O [SG3199] + O=C(c1cc(Cc2n[nH]c(=O)c3ccccc23)ccc1F)N1CCN(C(=O)C2CC2)CC1 [Olaparib] (first compound max 0.001 µM, 7x7, partner max 10 µM) | 0.136 | 0.0994 | 0.168 | 0.0914 | 0.0785 | 0.161 | 0.184 | 0.234 | 0.301 | 0.0448 | 0.0949 | 0.206 | 0.226 | 0.0858 | 0.147 | 0.0953 | 0.116 | 0.324 | 0.187 | 0.235
CN(C)CCCOc1ccc(-c2ccc3ncc4c(c3c2)n(C2CCOCC2)c(=O)n4C)cn1 [AZD0156] + C[C@@H]1COCCN1C2=NC(=NC(=C2)C3(CC3)[S@](=N)(=O)C)C4=C5C=CNC5=NC=C4 [AZD6738] (first compound max 1 µM, 7x7, partner max 10 µM) | 0.418 | 0.555 | 0.565 | 0.856 | 0.359 | 0.697 | 0.912 | 0.789 | 0.376 | 0.425 | 0.395 | 0.942 | 0.588 | 0.772 | 0.712 | 0.376 | 0.916 | 0.85 | 0.429 | 0.582
Cc1c2c(nn1C)CSCc1cc(n(C)n1)CSc1cc(c3ccccc3c1)OCCCc1c(C(=O)O)n(C)c3c-2c(Cl)ccc13 [AZD5991] + CCN(CCO)CCCOc1ccc2c(Nc3cc(CC(=O)Nc4cccc(F)c4)[nH]n3)ncnc2c1 [AZD2811] (first compound max 1 µM, 7x7, partner max 1 µM) | 1 | 0.48 | 0.465 | 0.307 | 0.94 | 0.354 | 0.875 | 0.41 | 0.437 | 0.21 | 0.239 | 0.386 | 0.808 | 0.739 | 0.815 | 0.269 | 1 | 0.932 | 0.574 | 0.705
